Reference: the NIST ThermoML archive (doi:10.1021/je025621h)

Settings: Liquid

O [water]
Settings | vapor or sublimation pressure [kPa]
327.13 K | 15
328.16 K | 15.75
330.78 K | 17.85
333.15 K | 19.94
335.82 K | 22.53
338.15 K | 25.02
340.67 K | 27.98
343.16 K | 31.21
346.13 K | 35.42
348.14 K | 38.55
353.14 K | 47.36
358.14 K | 57.79

C1CCCCC1 [cyclohexane]
Settings | vapor or sublimation pressure [kPa]
302.92 K | 16.06
304.19 K | 16.95
306.91 K | 19.05
308.27 K | 20.16
309.9 K | 21.56
313.16 K | 24.61
318.19 K | 30.03
323.14 K | 36.23
328.16 K | 43.51
331.9 K | 49.68
333.16 K | 51.9
333.17 K | 51.9
338.16 K | 61.56
343.16 K | 72.53
345.42 K | 77.94
348.05 K | 84.73

CCO [ethanol]
Settings | vapor or sublimation pressure [kPa]
312.17 K | 17
313.43 K | 18.15
318.15 K | 23.07
318.24 K | 23.18
320.87 K | 26.39
323.15 K | 29.48
326.13 K | 34
326.16 K | 34.02
328.14 K | 37.34
328.17 K | 37.39
330.65 K | 41.9
333.16 K | 46.94
336.1 K | 53.47
336.14 K | 53.56
338.16 K | 58.48
343.15 K | 72.3
348.14 K | 88.77
351.38 K | 101.11
351.42 K | 101.23
